Experimental data published in patent US8192962B2, “Processes for detecting toxic substances” (Daikin Industries, Ltd., priority 2001, dated 2012).

Tested on: Mitochondria-located protein genes
Experiment: DNA chip mRNA expression in yeast, mitochondria-located protein genes (Table 2)
Type: cell-based, Saccharomyces cerevisiae S288C
Conditions: cells incubated two hours with the chemical substance
Summary of the method: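 Cells were grown at 25° C. in YPD, treated at logarithmic phase for 2 h with a chemical at a concentration inhibiting growth but not causing death, and compared with untreated cultures. Labeled cDNA was hybridized to a DNA chip carrying all yeast genes, and the expression ratio was taken from scanner fluorescence.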

## Oc1cc(Cl)c(Cl)cc1Cl [(6), 2,4,5-trichlorophenol]
Yeast gene YJR121W
  The level of expressed mRNA in the presence of chemical substance/The level of expressed mRNA in the absence of chemical substance: 1.5
Yeast gene YKL003C
  The level of expressed mRNA in the presence of chemical substance/The level of expressed mRNA in the absence of chemical substance: 1.0
Yeast gene YKL016C
  The level of expressed mRNA in the presence of chemical substance/The level of expressed mRNA in the absence of chemical substance: 0.8
Yeast gene YKL141W
  The level of expressed mRNA in the presence of chemical substance/The level of expressed mRNA in the absence of chemical substance: 1.2
Yeast gene YKL142W
  The level of expressed mRNA in the presence of chemical substance/The level of expressed mRNA in the absence of chemical substance: 3.4
Yeast gene YKL148C
  The level of expressed mRNA in the presence of chemical substance/The level of expressed mRNA in the absence of chemical substance: 0.5
Yeast gene YKL170W
  The level of expressed mRNA in the presence of chemical substance/The level of expressed mRNA in the absence of chemical substance: 1.5
Yeast gene YKL194C
  The level of expressed mRNA in the presence of chemical substance/The level of expressed mRNA in the absence of chemical substance: 1.4
Yeast gene YKR066C
  The level of expressed mRNA in the presence of chemical substance/The level of expressed mRNA in the absence of chemical substance: 0.9
Yeast gene YLL041C
  The level of expressed mRNA in the presence of chemical substance/The level of expressed mRNA in the absence of chemical substance: 1.2
Yeast gene YLR038C
  The level of expressed mRNA in the presence of chemical substance/The level of expressed mRNA in the absence of chemical substance: 1.2
Yeast gene YLR259C
  The level of expressed mRNA in the presence of chemical substance/The level of expressed mRNA in the absence of chemical substance: 0.9
Yeast gene YLR295C
  The level of expressed mRNA in the presence of chemical substance/The level of expressed mRNA in the absence of chemical substance: 1.1
Yeast gene YLR304C
  The level of expressed mRNA in the presence of chemical substance/The level of expressed mRNA in the absence of chemical substance: 1.9
Yeast gene YLR348C
  The level of expressed mRNA in the presence of chemical substance/The level of expressed mRNA in the absence of chemical substance: 1.9
Yeast gene YLR395C
  The level of expressed mRNA in the presence of chemical substance/The level of expressed mRNA in the absence of chemical substance: 0.4
Yeast gene YML054C
  The level of expressed mRNA in the presence of chemical substance/The level of expressed mRNA in the absence of chemical substance: 1.8
Yeast gene YML120C
  The level of expressed mRNA in the presence of chemical substance/The level of expressed mRNA in the absence of chemical substance: 0.6
Yeast gene YML129C
  The level of expressed mRNA in the presence of chemical substance/The level of expressed mRNA in the absence of chemical substance: 1.7
Yeast gene YMR023C
  The level of expressed mRNA in the presence of chemical substance/The level of expressed mRNA in the absence of chemical substance: 1.1
Yeast gene YMR035W
  The level of expressed mRNA in the presence of chemical substance/The level of expressed mRNA in the absence of chemical substance: 1.5
Yeast gene YMR083W
  The level of expressed mRNA in the presence of chemical substance/The level of expressed mRNA in the absence of chemical substance: 1.8
Yeast gene YMR089C
  The level of expressed mRNA in the presence of chemical substance/The level of expressed mRNA in the absence of chemical substance: 1.2
Yeast gene YMR152W
  The level of expressed mRNA in the presence of chemical substance/The level of expressed mRNA in the absence of chemical substance: 7.5
Yeast gene YMR203W
  The level of expressed mRNA in the presence of chemical substance/The level of expressed mRNA in the absence of chemical substance: 1.1
Yeast gene YMR267W
  The level of expressed mRNA in the presence of chemical substance/The level of expressed mRNA in the absence of chemical substance: 1.4
Yeast gene YNL055C
  The level of expressed mRNA in the presence of chemical substance/The level of expressed mRNA in the absence of chemical substance: 2.6
Yeast gene YNL071W
  The level of expressed mRNA in the presence of chemical substance/The level of expressed mRNA in the absence of chemical substance: 1.3
Yeast gene YNL073W
  The level of expressed mRNA in the presence of chemical substance/The level of expressed mRNA in the absence of chemical substance: 0.5
Yeast gene YNL104C
  The level of expressed mRNA in the presence of chemical substance/The level of expressed mRNA in the absence of chemical substance: 0.8
Yeast gene YNL256W
  The level of expressed mRNA in the presence of chemical substance/The level of expressed mRNA in the absence of chemical substance: 0.5
Yeast gene YOL096C
  The level of expressed mRNA in the presence of chemical substance/The level of expressed mRNA in the absence of chemical substance: 1.3
Yeast gene YOR020C
  The level of expressed mRNA in the presence of chemical substance/The level of expressed mRNA in the absence of chemical substance: 2.3
Yeast gene YOR037W
  The level of expressed mRNA in the presence of chemical substance/The level of expressed mRNA in the absence of chemical substance: 1.6
Yeast gene YOR100C
  The level of expressed mRNA in the presence of chemical substance/The level of expressed mRNA in the absence of chemical substance: 1.2
Yeast gene YOR130C
  The level of expressed mRNA in the presence of chemical substance/The level of expressed mRNA in the absence of chemical substance: 1.6
Yeast gene YOR142W
  The level of expressed mRNA in the presence of chemical substance/The level of expressed mRNA in the absence of chemical substance: 1.6
Yeast gene YOR150W
  The level of expressed mRNA in the presence of chemical substance/The level of expressed mRNA in the absence of chemical substance: 0.9
Yeast gene YOR176W
  The level of expressed mRNA in the presence of chemical substance/The level of expressed mRNA in the absence of chemical substance: 0.9
Yeast gene YOR187W
  The level of expressed mRNA in the presence of chemical substance/The level of expressed mRNA in the absence of chemical substance: 1.7
Yeast gene YOR316C
  The level of expressed mRNA in the presence of chemical substance/The level of expressed mRNA in the absence of chemical substance: 0.9
Yeast gene YPL040C
  The level of expressed mRNA in the presence of chemical substance/The level of expressed mRNA in the absence of chemical substance: 1.1
Yeast gene YPL134C
  The level of expressed mRNA in the presence of chemical substance/The level of expressed mRNA in the absence of chemical substance: 1.2
Yeast gene YPL135W
  The level of expressed mRNA in the presence of chemical substance/The level of expressed mRNA in the absence of chemical substance: 1.3
Yeast gene YPL215W
  The level of expressed mRNA in the presence of chemical substance/The level of expressed mRNA in the absence of chemical substance: 0.7
Yeast gene YPL262W
  The level of expressed mRNA in the presence of chemical substance/The level of expressed mRNA in the absence of chemical substance: 1.6
Yeast gene YPR024W
  The level of expressed mRNA in the presence of chemical substance/The level of expressed mRNA in the absence of chemical substance: 1.0
Yeast gene YPR037C
  The level of expressed mRNA in the presence of chemical substance/The level of expressed mRNA in the absence of chemical substance: 0.9
Yeast gene YPR047W
  The level of expressed mRNA in the presence of chemical substance/The level of expressed mRNA in the absence of chemical substance: 1.0
Yeast gene YPR134W
  The level of expressed mRNA in the presence of chemical substance/The level of expressed mRNA in the absence of chemical substance: 0.6
